The values that follow come from patent US20250034135A1, “ANTI-APOPTOTIC PROTEIN BCL-2 INHIBITOR, PHARMACEUTICAL COMPOSITION AND USES THEREOF” (HANGZHOU HEALZEN THERAPEUTICS CO., LTD., priority 2021, published 2025).

One data set relates to human platelets. Briefly: Platelet viability test (CTG). The settings on record: CTG after 24 h. The format is cell-based. The method, then: After 10 mL of platelet-rich plasma was added to 30 mL of ACD-A solution and uniformly mixed, centrifugation was performed at 1200 g, and the supernatant was discarded; 10 mL of ACD-A solution was added, resuspended, uniformly mixed, and centrifuged at 1200 g for 10 min, and the supernatant was discarded. 5 mL of HEPES-Tyrode's buffer containing 1 μM PGE1 and 0.2 U/mL apyrase was added, slightly inverted, and then centrifuged at 800 g for 5 min, and the supernatant was discarded. 10 mL of HEPES-Tyrode's buffer containing 1 μM PGE1 and 0.2 U/mL apyrase was added, resuspended, and centrifuged at 1000 g for 5 min, and the supernatant was discarded. 2 mL of HEPES-Tyrode's buffer containing 1 μM PGE1+10% FBS-resuspended platelets was added, 200 μL was taken into a centrifuge tube and diluted to 2 mL. Then it was diluted to 1, 0.8, 0.6, 0.4, 0.2, 0.1, 0.08, 0.06, 0.04, 0.02, 0.01 times, the volume was complemented to 100 μL, and 50 μL of CTG reagent was added to detect cell viability. The maximum valid dilution with a fluorescence value not exceeding […] was selected for dilution, 90 μL/well was connected to a 96-well cell plate for chemiluminescence detection. A compound was prepared with HEPES-Tyrode's buffer containing 1 μM of PGE1+10% FBS, and added to the cells, which was gently beaten evenly and detected for cell viability by adding 50 μL CTG after 24 h.

The target in another data set is BCL2 (G101V) (Homo sapiens (Human), UniProt P10415, G101V). Briefly: Molecular level activity test of anti-apoptotic protein BCL2 (G101V) (HTRF, binding to Bim peptide). The settings on record: inhibition of BCL2 (G101V) binding to Bim peptide, read-out: BCL-2 (G101V). The essentials: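 His-tagged recombinant BCL2 (G101V) incubated 1 h with biotin-BIM peptide and compound (2% DMSO), then anti-His and streptavidin-XL665 detection reagents added for 4 h at room temperature. HTRF signal reflects compound effect on BCL2–BIM binding.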

The target in a further data set is BCL2 (D103Y) (Homo sapiens (Human), UniProt P10415, D103Y). Briefly: Molecular level activity test of BCL2 (D103Y) (HTRF, binding to Bim peptide). The settings on record: read-out: BCL-2 (D103Y) (nM) (inhibitory activity, IC50). The gist of the method:
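His-tagged recombinant protein mixed with biotinylated BIM peptide and compound (2% DMSO), reacted 1 h. Anti-His and streptavidin-XL665 detection reagents then added and incubated 4 h at room temperature before HTRF read-out of binding inhibition.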

In a further data set the target is BCL-XL (Homo sapiens (Human), UniProt Q07817). As to the kind of experiment: BCL-XL enzyme molecular level activity test (HTRF, binding to BIM peptide). The settings on record: binding of BCL-XL to BIM peptide, read-out: BCL-XL inhibitory activity (IC50). The gist of the method:
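HTRF binding assay: His-tagged recombinant BCL-XL with biotin-BIM peptide and compound (2% DMSO), 1 h. Anti-His and streptavidin-XL665 detection reagents added, 4 h at room temperature. Excitation 320 nm; 665/615 nm ratio reflects binding, with no-protein background and no-compound full-binding controls.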

For a further data set, the system named is RS4; 11 cells. As to the kind of experiment: Tumor proliferation inhibitory activity test (MTS) on RS4; 11. Type of data set: cell-based. The settings on record: Homo sapiens, RS4-11, 72 h, 3 days incubation. The essentials:
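RS4;11 cells were exposed to serially diluted compound (0.2% DMSO control) for 3 days at 37 °C/5% CO2, followed by MTS for 3–4 h. Read-out was OD490−OD690, and inhibition was calculated relative to the DMSO and blank wells.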

The next data set addresses human CYP3A4 enzyme (Homo sapiens (Human), UniProt P08684). Briefly: CYP3A4 enzyme inhibitory activity (Vivid CYP3A4 Green screening kit).
Another data set addresses BCL2 (Homo sapiens (Human), UniProt P10415). Briefly: Molecular level activity test of anti-apoptotic protein BCL2 (HTRF, binding to Bim peptide). The settings on record: HTRF, binding of BCL2 to Bim peptide; read-out: BCL2 nM (inhibitory activity, IC50). The essentials: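 Compound (2% DMSO) was mixed with His-tagged recombinant BCL2 and biotinylated Bim peptide for 1 h. Detection used anti-His antibody plus streptavidin-XL665 for 4 h at room temperature, read by time-resolved fluorescence.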

Where [1] appears, read: read-out: CYP3A4 (IC50), Vivid CYP3A4 Green screening kit.

Like-named read-outs stand apart in the source and are kept apart here.

Sequence of human CYP3A4 enzyme (P08684 whole entry): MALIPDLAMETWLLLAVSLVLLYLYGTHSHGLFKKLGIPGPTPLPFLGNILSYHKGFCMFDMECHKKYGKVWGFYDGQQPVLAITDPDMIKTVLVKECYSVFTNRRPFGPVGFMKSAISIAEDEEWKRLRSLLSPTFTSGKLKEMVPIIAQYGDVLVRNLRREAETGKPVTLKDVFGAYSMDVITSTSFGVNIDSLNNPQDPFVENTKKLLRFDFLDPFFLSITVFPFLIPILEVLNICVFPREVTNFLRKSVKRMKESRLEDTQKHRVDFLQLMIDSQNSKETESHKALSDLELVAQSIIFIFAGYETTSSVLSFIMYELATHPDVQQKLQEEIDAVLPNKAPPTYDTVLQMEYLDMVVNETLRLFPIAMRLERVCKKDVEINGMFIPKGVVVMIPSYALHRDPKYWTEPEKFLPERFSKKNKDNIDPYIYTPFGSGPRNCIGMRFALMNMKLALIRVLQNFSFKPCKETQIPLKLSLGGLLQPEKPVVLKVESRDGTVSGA
Sequence of BCL-XL (Q07817 whole entry): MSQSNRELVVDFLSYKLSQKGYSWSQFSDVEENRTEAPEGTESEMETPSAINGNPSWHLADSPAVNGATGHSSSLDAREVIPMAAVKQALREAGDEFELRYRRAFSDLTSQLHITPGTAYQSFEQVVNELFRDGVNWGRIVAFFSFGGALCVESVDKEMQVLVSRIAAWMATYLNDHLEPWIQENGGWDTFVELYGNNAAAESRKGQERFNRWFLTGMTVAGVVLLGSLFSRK
Method for human CYP3A4 enzyme: The inhibitory activity of compounds on human CYP3A4 enzyme was detected using a VIVID™ CYP3A4 GREEN SCRNING KIT reagent kit. The Vivid™ CYP450 screening kit includes a Vivid™ substrate, Vivid™ fluorescence standard, reaction buffer, Vivid™ regeneration system, NADP+ and CYP450 BACULOSOMES™ Plus reagent. Operations were performed following the instructions, and a blank control group was set up without adding any compounds.
The IC50 value of the compounds inhibiting human CYP3A4 enzyme was calculated using Graphpad Prism 7.00 software through the formula Y=100/(1+10^((Log IC50−X)*HillSlope)).

With `CC(C)c1ccccc1[C@@H]1CN(Cc2ccc(F)c(F)c2)CCN1C1CC2(CCN(c3cc(Oc4cnc5[nH]ccc5c4)c(C(=O)NS(=O)(=O)c4ccc(NCC5(F)CCOCC5)c([N+](=O)[O-])c4)cc3F)CC2)C1` [compound 190, (R)-2-((1H-pyrrolo[2,3-b]pyrid-5-yl)oxy)-4-(2-(4-(3,4-difluorobenzyl)-2-(2-isopropylphenyl)piperazin-1-yl)-7-azaspiro[3.5]non-7-yl)-5-fluoro-N-((4-(((4-fluorotetrahydro-2H-pyran-4-yl)methyl)amino)-3-nitrophenyl)sulfonyl)benzamide], the IC50 was > 5000 nM in the data set on human platelets; < 10 nM at BCL2 (G101V); < 10 nM on BCL2 (D103Y); > 500 nM at BCL-XL (values in nM); < 0.5 nM with RS4; 11 cells; > 20000 nM against human CYP3A4 enzyme.
As for `COc1ccc(CN2CCN(C3CC4(CCN(c5cc(Oc6cnc7[nH]ccc7c6)c(C(=O)NS(=O)(=O)c6ccc(NCC7(F)CCOCC7)c([N+](=O)[O-])c6)cc5F)CC4)C3)[C@H](c3ccccc3C(C)C)C2)cc1OC` [compound 197, (R)-2-((1H-pyrrolo[2,3-b]pyrid-5-yl)oxy)-4-(2-(4-(3,4-dimethoxybenzyl)-2-(2-isopropylphenyl)piperazin-1-yl)-7-azaspiro[3.5]non-7-yl)-5-fluoro-N-((4-(((4-fluorotetrahydro-2H-pyran-4-yl)methyl)amino)-3-nitrophenyl)sulfonyl)benzamide], the IC50 in the data set with human platelets is > 5000 nM; on BCL2 (G101V), < 10 nM; on BCL2 (D103Y), < 10 nM; on BCL2, < 10 nM; at BCL-XL (values given in μM) it was > 1000 nM; in the data set on RS4; 11 cells, < 0.5 nM. For the same molecule, the IC50 at human CYP3A4 enzyme (setting [1]) is > 20000 nM.
Consider `CC(C)c1ccccc1[C@@H]1CN(Cc2cnn(C)c2)CCN1C1CC2(CCN(c3cc(Oc4cnc5[nH]ccc5c4)c(C(=O)NS(=O)(=O)c4ccc(NCC5(F)CCOCC5)c([N+](=O)[O-])c4)cc3F)CC2)C1` [compound 209, (R)-2-((1H-pyrrolo[2,3-b]pyrid-5-yl)oxy)-5-fluoro-N-((4-(((4-fluorotetrahydro-2H-pyran-4-yl)methyl)amino)-3-nitrophenyl)sulfonyl)-4-(2-(2-(2-isopropylphenyl)-4-((1-methyl-1H-pyrazole-4-yl)methyl)piperazin-1-yl)-7-azaspiro[3.5]non-7-yl)benzamide], for which the IC50 in the data set with human platelets was > 5000 nM; at BCL2 (G101V), < 10 nM; at BCL2 (D103Y), < 10 nM; on BCL2 it was < 10 nM; on BCL-XL (values given in μM) it was 1900 nM; with RS4; 11 cells it was < 0.5 nM. Moreover, the IC50 at human CYP3A4 enzyme (setting [1]) was > 20000 nM.
For the molecule `COc1ccc(CN2CCN(C3CC4(CCN(c5cc(Oc6cnc7[nH]ccc7c6)c(C(=O)NS(=O)(=O)c6ccc(NCC7CCOCC7)c([N+](=O)[O-])c6)cc5F)CC4)C3)[C@H](c3ccccc3C(C)C)C2)cc1` [compound 239, (R)-2-((1H-pyrrolo[2,3-b]pyrid-5-yl)oxy)-5-fluoro-4-(2-(2-(2-isopropylphenyl)-4-(4-methoxybenzyl)piperazin-1-yl)-7-azaspiro[3.5]non-7-yl)-N-((3-nitro-4-(((tetrahydro-2H-pyran-4-yl)methyl)amino)phenyl)sulfonyl)benzamide], the IC50 is > 5000 nM in the data set on human platelets; < 10 nM on BCL2 (G101V); < 10 nM at BCL2; > 500 nM on BCL-XL (values in nM); < 0.5 nM in the data set on RS4; 11 cells; > 20000 nM at human CYP3A4 enzyme (setting [1]).
As for `COc1ccc(CN2CCN(C3CC4(CCN(c5cc(Oc6cnc7[nH]ccc7c6)c(C(=O)NS(=O)(=O)c6ccc(NC[C@H]7COCCO7)c([N+](=O)[O-])c6)cc5F)CC4)C3)[C@H](c3ccccc3C(C)C)C2)cc1` [compound 241, N-((4-((((S)-1,4-dioxan-2-yl)methyl)amino)-3-nitrophenyl)sulfonyl)-2-((1H-pyrrolo[2,3-b]pyrid-5-yl)oxy)-5-fluoro-4-(2-((R)-2-(2-isopropylphenyl)-4-(4-methoxybenzyl)piperazin-1-yl)-7-azaspiro[3.5]non-7-yl)benzamide], the IC50 is > 5000 nM with human platelets; < 10 nM on BCL2 (G101V); < 10 nM at BCL2 (D103Y); < 10 nM on BCL2; > 500 nM at BCL-XL (values in nM); < 0.5 nM in the data set on RS4; 11 cells.
`COc1ccc(CN2CCN(C3CC4(CCN(c5cc(Oc6cnc7[nH]ccc7c6)c(C(=O)NS(=O)(=O)c6ccc(NCC7(F)CCOCC7)c([N+](=O)[O-])c6)cc5F)CC4)C3)[C@H](c3ccccc3C(C)C)C2)cn1` [compound 242, (R)-2-((1H-pyrrolo[2,3-b]pyrid-5-yl)oxy)-5-fluoro-N-((4-(((4-fluorotetrahydro-2H-pyran-4-yl)methyl)amino)-3-nitrophenyl)sulfonyl)-4-(2-(2-(2-isopropylphenyl)-4-((6-methoxypyrid-3-yl)methyl)piperazin-1-yl)-7-azaspiro[3.5]non-7-yl)benzamide]: the IC50 is > 5000 nM with human platelets; < 10 nM on BCL2 (G101V); < 10 nM at BCL2 (D103Y); < 10 nM on BCL2; > 500 nM at BCL-XL (values in nM); < 0.5 nM in the data set on RS4; 11 cells. Moreover, the IC50 at human CYP3A4 enzyme (setting [1]) was > 20000 nM.
For `COc1cc(CN2CCN(C3CC4(CCN(c5cc(Oc6cnc7[nH]ccc7c6)c(C(=O)NS(=O)(=O)c6ccc(NCC7(F)CCOCC7)c([N+](=O)[O-])c6)cc5F)CC4)C3)[C@H](c3ccccc3C(C)C)C2)ccc1CN(C)C` [compound 247, (R)-2-((1H-pyrrolo[2,3-b]pyrid-5-yl)oxy)-4-(2-(4-(4-((dimethylamino)methyl)-3-methoxybenzyl)-2-(2-isopropylphenyl)piperazin-1-yl)-7-azaspiro[3.5]non-7-yl)-5-fluoro-N-((4-(((4-fluorotetrahydro-2H-pyran-4-yl)methyl)amino)-3-nitrophenyl)sulfonyl)benzamide], the IC50 was > 5000 nM in the data set with human platelets; < 10 nM on BCL2 (G101V); < 10 nM at BCL2 (D103Y); < 10 nM on BCL2; > 500 nM at BCL-XL (values in nM); 0.5 to 1 nM with RS4; 11 cells.
On to `COc1ccc(CN2CCN(C3CC4(CCN(c5cc(Oc6cnc7[nH]cc(F)c7c6)c(C(=O)NS(=O)(=O)c6ccc(NCC7(F)CCOCC7)c([N+](=O)[O-])c6)cc5F)CC4)C3)[C@H](c3ccccc3C(C)C)C2)cc1` [compound 252, (R)-5-fluoro-2-((3-fluoro-1H-pyrrolo[2,3-b]pyrid-5-yl)oxy)-N-((4-(((4-fluorotetrahydro-2H-pyran-4-yl)methyl)amino)-3-nitrophenyl)sulfonyl)-4-(2-(2-(2-isopropylphenyl)-4-(4-methoxybenzyl)piperazin-1-yl)-7-azaspiro[3.5]non-7-yl)benzamide], for which the IC50 in the data set with human platelets is > 5000 nM; on BCL2 (G101V), < 10 nM; on BCL2 (D103Y), < 10 nM; on BCL2, < 10 nM; at BCL-XL (values in nM), > 500 nM; with RS4; 11 cells, 0.5 to 1 nM.
